Results from PMC5439695 (PLoS ONE, 2017).

Tests used:
[1] = tested on: HEK293 and HepG2 cell lines; settings: human
[2] = tested on: NRF2; settings: cited from earlier work

SMILES | cytotoxicity kinetics activity profile in the four real-time cytotoxicity assays [1] | Nrf2 TF activity (in words) ([2]; Tox21 assay) | increase NRF2 TF activity, POD potency [2]
CC(C)(c1ccc(O)cc1)c1ccc(O)cc1 [Bisphenol A] | active only in HEK293[glo] | increased Nrf2 TF activity | –
O=C(OCCN1CCOCC1)c1cccnc1Nc1cccc(C(F)(F)F)c1 [Morniflumate, reference compound] | – | – | 4.54 log10(M)*-1
